Results: the NIST ThermoML archive (doi:10.1021/acs.jced.5b00838)
Numbers after ± are expanded uncertainties.

Test: excess molar enthalpy (molar enthalpy of mixing); xn = mol fraction of the nth substance listed
Conditions: 100 kPa, Liquid, isothermal titration calorimetry

CCCCCOCCC [1-propoxypentane] + CC#N
Conditions	excess molar enthalpy [kcal/mol]
298.15 K, x2 = 0.031	0.041 ± 0.000669
298.15 K, x2 = 0.0602	0.0775 ± 0.00108
298.15 K, x2 = 0.0876	0.108 ± 0.00143
298.15 K, x2 = 0.1135	0.133 ± 0.00174
298.15 K, x2 = 0.1379	0.155 ± 0.00201
298.15 K, x2 = 0.183	0.191 ± 0.00239
298.15 K, x2 = 0.2236	0.219 ± 0.00287
298.15 K, x2 = 0.2604	0.24 ± 0.00311
298.15 K, x2 = 0.2938	0.256 ± 0.00335
298.15 K, x2 = 0.3243	0.27 ± 0.00335
298.15 K, x2 = 0.3781	0.288 ± 0.00359
298.15 K, x2 = 0.424	0.298 ± 0.00382
298.15 K, x2 = 0.4635	0.304 ± 0.00382
298.15 K, x2 = 0.5061	0.307 ± 0.00382
298.15 K, x2 = 0.5424	0.306 ± 0.00382
298.15 K, x2 = 0.5738	0.304 ± 0.00382
298.15 K, x2 = 0.6011	0.301 ± 0.00382
298.15 K, x2 = 0.6296	0.296 ± 0.00382
298.15 K, x2 = 0.6542	0.29 ± 0.00359
298.15 K, x2 = 0.6758	0.284 ± 0.00359
298.15 K, x2 = 0.6979	0.276 ± 0.00359
298.15 K, x2 = 0.7171	0.269 ± 0.00335
298.15 K, x2 = 0.734	0.262 ± 0.00335
298.15 K, x2 = 0.7491	0.255 ± 0.00311
298.15 K, x2 = 0.7625	0.248 ± 0.00311
298.15 K, x2 = 0.7644	0.242 ± 0.00311
298.15 K, x2 = 0.7829	0.232 ± 0.00287
298.15 K, x2 = 0.8022	0.221 ± 0.00287
298.15 K, x2 = 0.8226	0.207 ± 0.00263
298.15 K, x2 = 0.844	0.191 ± 0.00239
298.15 K, x2 = 0.8666	0.172 ± 0.00222
298.15 K, x2 = 0.8807	0.159 ± 0.00206
298.15 K, x2 = 0.8953	0.145 ± 0.00189
298.15 K, x2 = 0.9104	0.128 ± 0.0017
298.15 K, x2 = 0.926	0.11 ± 0.00148
298.15 K, x2 = 0.9421	0.089 ± 0.00122
298.15 K, x2 = 0.9531	0.0741 ± 0.00105
298.15 K, x2 = 0.9644	0.0577 ± 0.00086
298.15 K, x2 = 0.976	0.0399 ± 0.000693
298.15 K, x2 = 0.9879	0.0207 ± 0.000502
308.15 K, x2 = 0.0305	0.0427 ± 0.000693
308.15 K, x2 = 0.0592	0.0799 ± 0.00112
308.15 K, x2 = 0.0863	0.111 ± 0.00148
308.15 K, x2 = 0.1118	0.137 ± 0.00179
308.15 K, x2 = 0.136	0.16 ± 0.00208
308.15 K, x2 = 0.1806	0.197 ± 0.00263
308.15 K, x2 = 0.2208	0.225 ± 0.00287
308.15 K, x2 = 0.2572	0.247 ± 0.00311
308.15 K, x2 = 0.2904	0.265 ± 0.00335
308.15 K, x2 = 0.3207	0.278 ± 0.00359
308.15 K, x2 = 0.3742	0.297 ± 0.00382
308.15 K, x2 = 0.4199	0.309 ± 0.00382
308.15 K, x2 = 0.4594	0.315 ± 0.00406
308.15 K, x2 = 0.502	0.319 ± 0.00406
308.15 K, x2 = 0.5383	0.319 ± 0.00406
308.15 K, x2 = 0.5697	0.317 ± 0.00406
308.15 K, x2 = 0.6022	0.312 ± 0.00382
308.15 K, x2 = 0.6301	0.307 ± 0.00382
308.15 K, x2 = 0.6543	0.301 ± 0.00382
308.15 K, x2 = 0.6756	0.295 ± 0.00382
308.15 K, x2 = 0.6944	0.288 ± 0.00359
308.15 K, x2 = 0.7137	0.281 ± 0.00359
308.15 K, x2 = 0.7173	0.276 ± 0.00359
308.15 K, x2 = 0.7308	0.273 ± 0.00335
308.15 K, x2 = 0.7382	0.267 ± 0.00335
308.15 K, x2 = 0.7459	0.266 ± 0.00335
308.15 K, x2 = 0.7595	0.259 ± 0.00335
308.15 K, x2 = 0.7603	0.256 ± 0.00335
308.15 K, x2 = 0.7838	0.242 ± 0.00311
308.15 K, x2 = 0.8089	0.226 ± 0.00287
308.15 K, x2 = 0.8355	0.206 ± 0.00263
308.15 K, x2 = 0.8524	0.192 ± 0.00239
308.15 K, x2 = 0.8699	0.176 ± 0.00227
308.15 K, x2 = 0.8882	0.157 ± 0.00203
308.15 K, x2 = 0.9072	0.136 ± 0.00179
308.15 K, x2 = 0.9271	0.112 ± 0.00151
308.15 K, x2 = 0.9409	0.0938 ± 0.00129
308.15 K, x2 = 0.955	0.0737 ± 0.00105
308.15 K, x2 = 0.9695	0.0515 ± 0.000813
308.15 K, x2 = 0.9845	0.027 ± 0.00055

CCCCCCCOC [1-methoxyheptane] + CC#N
excess molar enthalpy [kcal/mol]
Conditions	298.15 K	308.15 K
x2 = 0.0304	–	0.0322 ± 0.00055
x2 = 0.0307	0.0291 ± 0.000526	–
x2 = 0.059	–	0.0602 ± 0.00086
x2 = 0.0595	0.0573 ± 0.000837	–
x2 = 0.0859	–	0.0845 ± 0.00115
x2 = 0.0867	0.0816 ± 0.00112	–
x2 = 0.1114	–	0.106 ± 0.00141
x2 = 0.1123	0.103 ± 0.00136	–
x2 = 0.1354	–	0.125 ± 0.00165
x2 = 0.1366	0.121 ± 0.0016	–
x2 = 0.1799	–	0.156 ± 0.00201
x2 = 0.1813	0.151 ± 0.00196	–
x2 = 0.22	–	0.181 ± 0.00232
x2 = 0.2216	0.175 ± 0.00225	–
x2 = 0.2563	–	0.201 ± 0.00263
x2 = 0.2582	0.194 ± 0.00239	–
x2 = 0.2894	–	0.216 ± 0.00287
x2 = 0.2914	0.209 ± 0.00263	–
x2 = 0.3197	–	0.229 ± 0.00287
x2 = 0.3218	0.221 ± 0.00287	–
x2 = 0.3732	–	0.248 ± 0.00311
x2 = 0.3754	0.239 ± 0.00311	–
x2 = 0.4188	–	0.26 ± 0.00335
x2 = 0.4212	0.25 ± 0.00311	–
x2 = 0.4583	–	0.268 ± 0.00335
x2 = 0.4607	0.258 ± 0.00335	–
x2 = 0.5008	–	0.273 ± 0.00335
x2 = 0.5033	0.263 ± 0.00335	–
x2 = 0.5372	–	0.275 ± 0.00359
x2 = 0.5396	0.264 ± 0.00335	–
x2 = 0.5686	–	0.275 ± 0.00335
x2 = 0.571	0.264 ± 0.00335	–
x2 = 0.596	–	0.273 ± 0.00335
x2 = 0.5983	0.263 ± 0.00335	–
x2 = 0.6246	–	0.269 ± 0.00335
x2 = 0.6269	0.259 ± 0.00335	–
x2 = 0.6494	–	0.265 ± 0.00335
x2 = 0.6517	0.256 ± 0.00335	–
x2 = 0.6712	–	0.261 ± 0.00335
x2 = 0.6733	0.251 ± 0.00311	–
x2 = 0.6934	–	0.255 ± 0.00311
x2 = 0.6955	0.246 ± 0.00311	–
x2 = 0.7111	0.239 ± 0.00311	0.255 ± 0.00335
x2 = 0.7148	0.24 ± 0.00311	0.249 ± 0.00311
x2 = 0.7318	0.234 ± 0.00287	0.248 ± 0.00311
x2 = 0.7322	0.232 ± 0.00287	0.243 ± 0.00311
x2 = 0.7469	0.228 ± 0.00287	0.238 ± 0.00311
x2 = 0.7547	0.223 ± 0.00287	0.237 ± 0.00311
x2 = 0.7604	0.223 ± 0.00287	0.231 ± 0.00287
x2 = 0.7692	–	0.227 ± 0.00287
x2 = 0.7786	0.212 ± 0.00263	–
x2 = 0.7954	–	0.213 ± 0.00263
x2 = 0.8041	0.199 ± 0.00263	–
x2 = 0.8236	–	0.195 ± 0.00239
x2 = 0.8313	0.182 ± 0.00234	–
x2 = 0.8414	–	0.182 ± 0.00234
x2 = 0.8485	0.171 ± 0.0022	–
x2 = 0.86	–	0.168 ± 0.00217
x2 = 0.8664	0.157 ± 0.00203	–
x2 = 0.8795	–	0.151 ± 0.00196
x2 = 0.8851	0.141 ± 0.00184	–
x2 = 0.8999	–	0.131 ± 0.00172
x2 = 0.9047	0.123 ± 0.00163	–
x2 = 0.9212	–	0.109 ± 0.00146
x2 = 0.9251	0.101 ± 0.00136	–
x2 = 0.936	–	0.0913 ± 0.00124
x2 = 0.9391	0.0851 ± 0.00117	–
x2 = 0.9512	–	0.0721 ± 0.00103
x2 = 0.9536	0.0668 ± 0.000956	–
x2 = 0.9669	–	0.0506 ± 0.000789
x2 = 0.9686	0.0464 ± 0.000741	–
x2 = 0.9832	–	0.0265 ± 0.000526
x2 = 0.9841	0.0235 ± 0.000502	–
